Measured values from the PolyMetriX glass transition set.
± gives the standard deviation of the reports.

Question: For `*c1ccc2c(c1)C(CCCCCC)(CCCCCC)c1cc(-c3cc(OCCCCCCCC)c(*)cc3OCCCCCCCC)ccc1-2` (repeat unit), which glass transition temperature is on record?
Answer: 58.00 °C

Question: For `*Nc1ccccc1CCc1ccc(NC(=O)NCCCCCCNC(*)=O)cc1` (repeat unit), which glass transition temperature is on record?
Answer: 150.00 °C

Question: With `*c1ccc(Oc2ccc(C(=O)c3cccc(C(=O)c4ccc(Oc5ccc(-c6c7c(c(*)c8ccccc68)C(=O)N(CCCCCCCCCCCC)C7=O)cc5)cc4)c3)cc2)cc1` (repeat unit) as the molecule, how does the glass transition temperature read?
Answer: 140.00 °C

Question: Which glass transition temperature does the source give for `*C(=O)Nc1ccc(-c2cc(-c3ccccc3)cc(-c3ccc(NC(=O)c4ccc5c(c4)C(=O)N(c4cccc(P(=O)(c6ccccc6)c6cccc(N7C(=O)c8ccc(*)cc8C7=O)c6)c4)C5=O)cc3)n2)cc1` (repeat unit) here?
Answer: 258.00 °C

Question: For `*c1ccc(Cc2ccc(N3C(=O)c4ccc([Si](C)(C)c5ccc6c(c5)C(=O)N(*)C6=O)cc4C3=O)cc2)cc1` (repeat unit), which glass transition temperature is on record?
Answer: 280.00 °C

Question: For `*CC(C)CNC(=O)O*` (repeat unit), which glass transition temperature is on record?
Answer: 40.00 °C

Question: For `*Oc1ccc(NC(=O)c2cc(-c3ccc(C(=O)OCC)c(C(=O)Nc4ccc(*)cc4)c3)ccc2C(=O)OCC)cc1` (repeat unit), which glass transition temperature is on record?
Answer: 190.2 °C

Question: With `*/C=C/C(*)(C)c1ccccc1` (repeat unit) as the molecule, how does the glass transition temperature read?
Answer: 52.00 °C

Question: Which glass transition temperature does the source give for `*CC(*)OC(=O)c1ccc(OCC)cc1` (repeat unit) here?
Answer: 70.00 °C

Question: With `*O[Si](*)(C)CCCOCCOCCOC` (repeat unit) as the molecule, how does the glass transition temperature read?
Answer: -90.10 °C

Question: Which glass transition temperature does the source give for `*CC(*)(C)C(=O)OCc1ccc(F)cc1F` (repeat unit) here?
Answer: 46.00 °C

Question: With `*Oc1ccc(C2(c3ccc(OC(=O)c4cccc(C(*)=O)c4)cc3)c3ccccc3-c3ccccc32)cc1` (repeat unit) as the molecule, how does the glass transition temperature read?
Answer: 269.50 °C

Question: With `*CC(*)C(=O)Oc1ccc(C(=O)OCCCC)cc1` (repeat unit) as the molecule, how does the glass transition temperature read?
Answer: 13.00 °C

Question: With `*Oc1ccc(C(C)(C)c2ccc(Oc3cccc(*)n3)cc2)cc1` (repeat unit) as the molecule, how does the glass transition temperature read?
Answer: 107.00 °C

Question: For `*CCCCCCCNC(=O)C(OC)C(OC)C(=O)N*` (repeat unit), which glass transition temperature is on record?
Answer: 87.00 °C

Question: Which glass transition temperature does the source give for `*c1ccc(Oc2cc3ccccc3cc2Oc2ccc(N3C(=O)c4ccc(Oc5ccccc5Oc5ccc6c(c5)C(=O)N(*)C6=O)cc4C3=O)cc2)cc1` (repeat unit) here?
Answer: 216.00 °C

Question: Which glass transition temperature does the source give for `*Oc1ccc(C(c2ccc(Oc3c(F)c(F)c(COC(c4cccc(C(OCc5c(F)c(F)c(*)c(F)c5F)(C(F)(F)F)C(F)(F)F)c4)(C(F)(F)F)C(F)(F)F)c(F)c3F)cc2)(C(F)(F)F)C(F)(F)F)cc1` (repeat unit) here?
Answer: 113.00 °C

Question: Which glass transition temperature does the source give for `*OC(=O)c1ccc(C(F)(F)C(F)(F)C(F)(F)c2ccc(C(*)=O)cc2)cc1` (repeat unit) here?
Answer: 98.00 °C

Question: With `*OC(=O)OC1COC2C(*)COC12` (repeat unit) as the molecule, how does the glass transition temperature read?
Answer: 140.00 °C

Question: Which glass transition temperature does the source give for `*Oc1ccc(Oc2ccc(C(=O)c3ccc(P(=O)(c4ccccc4)c4ccc(C(=O)c5ccc(*)cc5)cc4)cc3)cc2)cc1` (repeat unit) here?
Answer: 207.00 °C

Question: Which glass transition temperature does the source give for `*c1ccc(Oc2ccc(Oc3ccc(N4C(=O)c5ccc(Oc6ccc7ccc(Oc8ccc9c(c8)C(=O)N(*)C9=O)cc7c6)cc5C4=O)cc3)cc2)cc1` (repeat unit) here?
Answer: 228.00 °C

Question: For `*Oc1ccc(C2(c3ccc(OC(=O)CCCCCCCCCC(*)=O)cc3)c3ccccc3-c3ccccc32)cc1` (repeat unit), which glass transition temperature is on record?
Answer: 136.00 °C

Question: With `*ON(C(F)(F)F)C(F)(Br)C(*)(F)F` (repeat unit) as the molecule, how does the glass transition temperature read?
Answer: 3.00 °C

Question: With `*CC(F)(F)C1(F)CC(C(O)(C(F)(F)F)C(F)(F)F)CC1*` (repeat unit) as the molecule, how does the glass transition temperature read?
Answer: 118.00 °C

Question: For `*CCC(F)(F)C(*)(F)F` (repeat unit), which glass transition temperature is on record?
Answer: -108.00 °C

Question: For `*Oc1c(C)cc(C2(c3cc(C)c(Oc4ccc(C(=O)c5cccc(C(=O)c6ccc(*)cc6)c5)cc4)c(C)c3)CCC3CCCCC3C2)cc1C` (repeat unit), which glass transition temperature is on record?
Answer: 224.00 °C

Question: With `*CC(*)OC(=O)CCCC1CCCCC1` (repeat unit) as the molecule, how does the glass transition temperature read?
Answer: -10.00 °C

Question: Which glass transition temperature does the source give for `*CC(*)N1CCCC1=S` (repeat unit) here?
Answer: 80.00 °C

Question: With `*CCCCCCOC(=O)OCCCCOC(=O)OCCCCCCOc1ccc(Oc2ccc(O*)cc2)cc1` (repeat unit) as the molecule, how does the glass transition temperature read?
Answer: -8.00 °C

Question: For `*CCCOCCCOC(=O)c1ccc(-c2ccc(C(=O)O*)cc2)cc1` (repeat unit), which glass transition temperature is on record?
Answer: 18.50 °C

Question: For `*c1ccc(-c2ccc(-c3ccc([Si](*)(CCCC)CCCC)s3)s2)s1` (repeat unit), which glass transition temperature is on record?
Answer: 30.00 °C

Question: With `*Oc1ccc(-c2ccc(Oc3ccc(C(=O)c4cccc(C(=O)c5ccc(*)cc5)c4)cc3)cc2)cc1` (repeat unit) as the molecule, how does the glass transition temperature read?
Answer: 159.00 °C

Question: With `*c1ccc2c(c1)C(=O)N(c1ccc(OCCN(CCOc3ccc(N4C(=O)c5ccc(C(*)(C(F)(F)F)C(F)(F)F)cc5C4=O)cc3)c3ccc(C(C#N)=C(C#N)C#N)cc3)cc1)C2=O` (repeat unit) as the molecule, how does the glass transition temperature read?
Answer: 218.00 °C

Question: For `*CC(*)(C)C(=O)OCCCCCCc1ccc(/N=N/c2ccc(OC(F)(F)F)cc2)cc1` (repeat unit), which glass transition temperature is on record?
Answer: 194.50 °C

Question: For `*O[Si](C)(C)O[Si](C)(C)O[Si](C)(C)O[Si](C)(C)c1ccc(Oc2ccc([Si](*)(C)C)cc2)cc1` (repeat unit), which glass transition temperature is on record?
Answer: -52.00 °C

Question: With `*c1cc(C(=O)OCCCCCCCCCCOc2ccc(-c3ccc(OC(=O)c4ccc(OCC(F)CCCCCC)cc4)cc3)cc2)c(*)s1` (repeat unit) as the molecule, how does the glass transition temperature read?
Answer: 151.00 °C

Question: With `*CC(*)(F)C(=O)OCC(F)(F)C(F)(F)C(F)(F)C(F)(F)F` (repeat unit) as the molecule, how does the glass transition temperature read?
Answer: 63.00 °C

Question: For `*Nc1ccc(C(C)(C)c2ccc(C(C)(C)c3ccc(Nc4ccc(C(O)(c5ccccc5)c5ccc(C(O)(c6ccccc6)c6ccc(*)cc6)cc5)cc4)cc3)cc2)cc1` (repeat unit), which glass transition temperature is on record?
Answer: 177.00 °C

Question: For `*CCCS(=O)(=O)CCCS(=O)(=O)CCCOC(=O)c1ccccc1C(=O)O*` (repeat unit), which glass transition temperature is on record?
Answer: 52.00 °C

Question: With `*c1ccc(-c2ccc(-c3cc(-c4ccccc4)c4cc(C5(c6ccc7nc(*)cc(-c8ccccc8)c7c6)c6ccccc6-c6ccccc65)ccc4n3)cc2)cc1` (repeat unit) as the molecule, how does the glass transition temperature read?
Answer: 380.00 °C

Question: Which glass transition temperature does the source give for `*Oc1ccc(OC(=O)c2cc(OCCCCCCCOCC3CCCN3c3ccc([N+](=O)[O-])cc3)c(C(*)=O)cc2OCCCCCCCOCC2CCCN2c2ccc([N+](=O)[O-])cc2)cc1` (repeat unit) here?
Answer: 50.00 °C

Question: For `*Nc1ccc(NC(=O)CCCCCCCC(*)=O)cc1` (repeat unit), which glass transition temperature is on record?
Answer: 130.00 °C

Question: For `*CCC1C(=O)N(CCCCCC)C(=O)C1*` (repeat unit), which glass transition temperature is on record?
Answer: 41.50 °C

Question: For `*Oc1ccc(S(=O)(=O)c2ccc(*)cc2)c2ccccc12` (repeat unit), which glass transition temperature is on record?
Answer: 238.00 °C

Question: With `*CC(*)(C)C(=O)OCCN(CCCC)c1ccc(/N=N/c2ccc(S(=O)(=O)Nc3nccs3)cc2)cc1` (repeat unit) as the molecule, how does the glass transition temperature read?
Answer: 53.00 °C

Question: Which glass transition temperature does the source give for `*CC(CS(=O)(=O)CCC)O*` (repeat unit) here?
Answer: 43.00 °C

Question: For `*NC(=O)Nc1ccc(Cc2ccc(NC(=O)Nc3cccc(*)n3)cc2)cc1` (repeat unit), which glass transition temperature is on record?
Answer: 206.50 °C

Question: With `*CCCCNC(=O)c1ccc(C(=O)N*)c(Sc2ccccc2)c1` (repeat unit) as the molecule, how does the glass transition temperature read?
Answer: 136.00 °C

Question: Which glass transition temperature does the source give for `*C(=O)Nc1ccc(Oc2ccc(Oc3ccc(NC(=O)c4ccc5c(c4)C(=O)N(c4ccc(-c6sc(-c7ccc(N8C(=O)c9ccc(*)cc9C8=O)cc7)c(-c7ccccc7)c6-c6ccccc6)cc4)C5=O)cc3)cc2)cc1` (repeat unit) here?
Answer: 303.00 °C

Question: With `*OC(=O)C(CC(C)C)NC(=O)CCCCCCCCC(=O)NC(CC(C)C)C(=O)OC1COC2C(*)COC12` (repeat unit) as the molecule, how does the glass transition temperature read?
Answer: 89.00 °C

Question: Which glass transition temperature does the source give for `*Nc1cccc(NC(=O)c2cc(NC(=O)c3ccncc3)cc(C(*)=O)c2)c1` (repeat unit) here?
Answer: 321.00 °C

Question: With `*CCCCNC(=O)c1ccc(C(C)(CC)c2ccc(C(=O)N*)cc2)cc1` (repeat unit) as the molecule, how does the glass transition temperature read?
Answer: 182.00 °C

Question: Which glass transition temperature does the source give for `*CNC(=O)OCc1ccc(COCc2ccc(COC(=O)NCc3ccc(C(C)(C)c4ccc(*)o4)o3)o2)o1` (repeat unit) here?
Answer: 39.00 °C

Question: For `*c1ccc(NC(=O)CCCCCCCC(=O)Nc2ccc(S(*)(=O)=O)cc2)cc1` (repeat unit), which glass transition temperature is on record?
Answer: 178.00 °C

Question: With `*NNC(=O)c1ccc(C(*)=O)cc1OCCCCCCCCCC` (repeat unit) as the molecule, how does the glass transition temperature read?
Answer: 193.00 °C

Question: With `*Oc1cccc2cc(OC(=O)c3ccc(Oc4ccc(C(*)=O)cc4)cc3)ccc12` (repeat unit) as the molecule, how does the glass transition temperature read?
Answer: 179.00 °C

Question: With `*C(=O)c1ccc2c(c1)C(=O)N(c1ccc(Oc3ccc(C(C)(C)c4ccc(Oc5ccc(N6C(=O)c7ccc(*)cc7C6=O)cc5)cc4)cc3)cc1)C2=O` (repeat unit) as the molecule, how does the glass transition temperature read?
Answer: 256.00 ± 71 °C

Question: With `*c1ccc2c(c1)C(=O)N(c1c(CC)cc(Cc3cc(CC)c(N4C(=O)c5ccc(C(*)(C(F)(F)F)C(F)(F)F)cc5C4=O)c(CC)c3)cc1CC)C2=O` (repeat unit) as the molecule, how does the glass transition temperature read?
Answer: 266.00 °C

Question: For `*c1ccc(-c2ccc([Si](*)(CCCC)CCCC)s2)s1` (repeat unit), which glass transition temperature is on record?
Answer: -10.00 °C

Question: With `*c1ccc2c(c1)C(CCCCCC)(CCCCCC)c1cc(-c3ccc4c(c3)c3cc(*)ccc3n4-c3ccc(OC)cc3)ccc1-2` (repeat unit) as the molecule, how does the glass transition temperature read?
Answer: 174.00 °C

Question: Which glass transition temperature does the source give for `*Oc1ccc(C2(c3ccc(Oc4ccc(C(=O)c5ccc(Oc6ccc(C(=O)c7ccc(*)cc7)cc6)cc5)cc4)cc3)c3ccccc3-c3ccccc32)cc1` (repeat unit) here?
Answer: 231.00 °C

Question: For `*C(=O)Nc1ccc(NC(=O)c2ccc3c(c2)C(=O)N(c2c(C)cc(C)c(N4C(=O)c5ccc(*)cc5C4=O)c2C)C3=O)cc1` (repeat unit), which glass transition temperature is on record?
Answer: 327.00 °C

Question: With `*OP(=O)(Oc1ccccc1)Oc1cccc2c(*)cccc12` (repeat unit) as the molecule, how does the glass transition temperature read?
Answer: 138.00 °C

Question: For `*c1ccc(Oc2ccc(-c3csc(/N=C/c4ccc(OCCCCCCCCOc5ccc(/C=N/c6nc(*)cs6)cc5)cc4)n3)cc2)cc1` (repeat unit), which glass transition temperature is on record?
Answer: 150.00 °C

Question: With `*Oc1ccc(CC(NC(=O)CCc2ccc(OC(=O)CCCCCCC(*)=O)cc2)C(=O)OC(C)C)cc1` (repeat unit) as the molecule, how does the glass transition temperature read?
Answer: 46.00 °C

Question: Which glass transition temperature does the source give for `*CC(*)C(=O)Oc1cccc(C(=O)OC)c1` (repeat unit) here?
Answer: 38.00 °C

Question: With `*Cc1cccc(CNC(=O)CCC2(CCC(=O)N*)c3ccccc3-c3ccccc32)c1` (repeat unit) as the molecule, how does the glass transition temperature read?
Answer: 150.00 °C
